Key:
[1] = system: IL-23 induced STAT3 in HEK-Blue™ IL-23 cells; experiment: IL-23 induced STAT3 QUANTI-Blue reporter assay in HEK-Blue IL-23 cells; type: cell-based; conditions: HEK-Blue IL-23, HEK-Blue IL-23 cells, IL-23 0.1 ng/mL, SEAP levels; class symbols; read-out: IL23 reporter assay (IC50 nM)
How it was run: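 HEK-Blue IL-23 cells, 5000/well, preincubated with compound 1 h at 37 °C, then stimulated overnight with IL-23 at 0.1 ng/mL final. Supernatant mixed with QUANTI-Blue for 2 h at 37 °C and secreted SEAP read out.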

[2] = target: T1, N-terminal His-tagged TYK2 pseudokinase domain (Homo sapiens, UniProt P29597); experiment: TYK2 JH2 domain SPA binding assay; conditions: displacement of H3 probe (20 nM), 30 min room temperature; class symbols
T1 construct: the N-terminal His-tagged TYK2 pseudokinase domain; His (N); purchased Pharmaron
T1 sequence (P29597 589-875 limits assumed): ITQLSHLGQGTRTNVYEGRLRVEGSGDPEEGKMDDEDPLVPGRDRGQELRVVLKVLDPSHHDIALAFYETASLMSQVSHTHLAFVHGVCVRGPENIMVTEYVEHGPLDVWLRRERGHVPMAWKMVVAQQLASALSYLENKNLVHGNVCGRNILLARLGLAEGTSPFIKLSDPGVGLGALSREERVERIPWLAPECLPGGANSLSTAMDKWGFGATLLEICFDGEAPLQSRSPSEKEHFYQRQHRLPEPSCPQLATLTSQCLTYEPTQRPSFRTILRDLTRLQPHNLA
Description: TYK2 JH2 Domain Binding Assay
After incubating at room temperature for 30 min, the inhibition was calculated by the displacement of [3H] 3 binding as determined by scintillation counting. Dose-response curves were generated to determine the concentration required to inhibit H3 probe binding by […] (IC50).

Row | SMILES | IC50 [1] [nM] | IC50 [2] [nM]
1 | [2H]C([2H])([2H])Nc1cc(Nc2cccn(-c3ccn(C([2H])([2H])[2H])n3)c2=O)nn2c(C(=O)N[C@@H]3C[C@H]4CCO[C@H]43)cnc12 [Compound 53] | < 10 | 10 to 100
2 | CNc1cc(Nc2cccn(-c3nn(C)cc3F)c2=O)nn2c(C(=O)N[C@@H]3C[C@H]4CCO[C@H]43)cnc12 [Compound 54] | < 10 | 10 to 100
3 | CNc1cc(Nc2cccn(-c3cc(C)n(C)n3)c2=O)nn2c(C(=O)N[C@@H]3C[C@H]4CCO[C@H]43)cnc12 [Compound 55] | 10 to 100 | 10 to 100
4 | [2H]C([2H])([2H])Nc1cc(Nc2cccn(-c3ccn(C)n3)c2=O)nn2c(C(=O)N[C@@H]3C[C@@H]3F)cnc12 [Compound 57] | 10 to 100 | 10 to 100
5 | [2H]C([2H])([2H])n1ccc(-n2cccc(Nc3cc(NC)c4ncc(C(=O)N[C@@H]5C[C@@H]5F)n4n3)c2=O)n1 [Compound 58] | 10 to 100 | 10 to 100
6 | [2H]C([2H])([2H])Nc1cc(Nc2cccn(-c3ccn(C([2H])([2H])[2H])n3)c2=O)nn2c(C(=O)N[C@@H]3C[C@@H]3F)cnc12 [Compound 59] | < 10 | 10 to 100
7 | CNc1cc(Nc2cccn([C@H]3CC[C@H](OC)CC3)c2=O)nn2c(C(=O)N[C@@H]3C[C@H]4CCO[C@H]43)cnc12 [Compound 63] | < 10 | < 10
8 | [2H]C([2H])([2H])Nc1cc(Nc2cccn([C@H]3CC[C@@H](OC([2H])([2H])[2H])CC3)c2=O)nn2c(C(=O)N[C@@H]3C[C@H]4CCO[C@H]43)cnc12 [Compound 64] | 10 to 100 | 10 to 100
9 | CNc1cc(Nc2cccn([C@H]3CCCOC3)c2=O)nn2c(C(=O)N[C@@H]3C[C@H]4CCO[C@H]43)cnc12 [Compound 65] | < 10 | 10 to 100
10 | CNc1cc(Nc2cccn(C3CCOCC3)c2=O)nn2c(C(=O)N[C@@H]3C[C@H]4CCO[C@H]43)cnc12 [Compound 66] | < 10 | 10 to 100
11 | [2H]C([2H])([2H])Nc1cc(Nc2cccn([C@H]3CC[C@H](OC([2H])([2H])[2H])CC3)c2=O)nn2c(C(=O)N[C@@H]3C[C@@H]3F)cnc12 [Compound 69] | < 10 | 10 to 100
12 | CNc1cc(Nc2cccn([C@H]3CC[C@@H](OC)CC3)c2=O)nn2c(C(=O)N[C@@H]3C[C@@H]3F)cnc12 [Compound 70] | 10 to 100 | 10 to 100
13 | [2H]C([2H])([2H])Nc1cc(Nc2cccn([C@H]3CC[C@@H](OC([2H])([2H])[2H])CC3)c2=O)nn2c(C(=O)N[C@@H]3C[C@@H]3F)cnc12 [Compound 72] | < 10 | 10 to 100
14 | CNc1cc(Nc2cccn(C3CCC4(CC3)COC4)c2=O)nn2c(C(=O)N[C@@H]3C[C@@H]3F)cnc12 [Compound 73] | < 10 | 10 to 100
15 | CNc1cc(Nc2cccn(C3C[C@H]4CC[C@@H](C3)O4)c2=O)nc2c(C(=O)N[C@@H]3C[C@H]4CCO[C@H]43)cnn12 (stereo partly shown) [Compound 76] | 10 to 100 | 10 to 100
16 | [2H]C([2H])([2H])Nc1cc(Nc2cccn(C3C[C@H]4CC[C@@H](C3)O4)c2=O)nn2c(C(=O)N[C@@H]3C[C@@H]3F)cnc12 (stereo partly shown) [Compound 80] | 10 to 100 | 10 to 100
17 | CNc1cc(Nc2cccn(C3C[C@H]4CC[C@@H](C3)O4)c2=O)nc2c(C(=O)N[C@@H]3C[C@@H]3F)cnn12 (stereo partly shown) [Compound 81] | 10 to 100 | 10 to 100
18 | CNc1cc(Nc2cccn([C@H]3C[C@H](OC)C3)c2=O)nn2c(C(=O)N[C@@H]3C[C@H]4CCO[C@H]43)cnc12 [Compound 82] | < 10 | 10 to 100
19 | [2H]C([2H])([2H])O[C@H]1C[C@H](n2cccc(Nc3cc(NC)c4ncc(C(=O)N[C@@H]5C[C@H]6CCO[C@H]65)n4n3)c2=O)C1 [Compound 83] | 10 to 100 | 10 to 100
20 | [2H]C([2H])([2H])Nc1cc(Nc2cccn([C@H]3C[C@H](OC([2H])([2H])[2H])C3)c2=O)nn2c(C(=O)N[C@@H]3C[C@H]4CCO[C@H]43)cnc12 [Compound 84] | 10 to 100 | 10 to 100
21 | CNc1cc(Nc2cccn([C@H]3C[C@@H](OC)C3)c2=O)nn2c(C(=O)N[C@@H]3C[C@H]4CCO[C@H]43)cnc12 [Compound 85] | 10 to 100 | 10 to 100
22 | [2H]C([2H])([2H])O[C@H]1C[C@@H](n2cccc(Nc3cc(NC)c4ncc(C(=O)N[C@@H]5C[C@H]6CCO[C@H]65)n4n3)c2=O)C1 [Compound 86] | 10 to 100 | 10 to 100
23 | [2H]C([2H])([2H])Nc1cc(Nc2cccn([C@H]3C[C@@H](OC([2H])([2H])[2H])C3)c2=O)nn2c(C(=O)N[C@@H]3C[C@H]4CCO[C@H]43)cnc12 [Compound 87] | 10 to 100 | 10 to 100
24 | [2H]C([2H])([2H])Nc1cc(Nc2cccn([C@H]3C[C@H](OC(F)(F)F)C3)c2=O)nn2c(C(=O)N[C@@H]3C[C@H]4CCO[C@H]43)cnc12 [Compound 89] | 10 to 100 | 10 to 100
25 | CNc1cc(Nc2cccn([C@H]3C[C@H](F)C3)c2=O)nn2c(C(=O)N[C@@H]3C[C@H]4CCO[C@H]43)cnc12 [Compound 90] | 10 to 100 | 10 to 100
26 | CNc1cc(Nc2cccn([C@H]3C[C@H](OC)C3)c2=O)nn2c(C(=O)N[C@@H]3C[C@@H]3F)cnc12 [Compound 99] | 10 to 100 | 10 to 100
27 | [2H]C([2H])([2H])Nc1cc(Nc2cccn([C@H]3C[C@H](OC([2H])([2H])[2H])C3)c2=O)nc2c(C(=O)N[C@@H]3C[C@@H]3F)cnn12 [Compound 100] | 10 to 100 | 10 to 100
28 | [2H]C([2H])([2H])Nc1cc(Nc2cccn([C@@H]3C[C@H]4CCO[C@H]43)c2=O)nn2c(C(=O)N[C@@H]3C[C@@H]3F)cnc12 [Compound 106] | < 10 | < 10
29 | CNc1cc(Nc2cccn(CC3CCCO3)c2=O)nn2c(C(=O)N[C@@H]3C[C@@H]3F)cnc12 (stereo partly shown) [Compound 107] | 10 to 100 | 10 to 100

Reference: patent US20240335443A1, “IMIDAZOLOPYRIDAZINE OR PYRAZOLOPYRIMIDINE COMPOUNDS AND COMPOSITIONS” (Anrui Biomedical Technology (Guangzhou) Co., Ltd., priority 2021, published 2024)
